Tests used:
Type in all cases: functional, organism-based
[1] = target: ATP-binding cassette sub-family C member 2 (Mus musculus, UniProt Q8VI47); assay: (§1) TP_TRANSPORTER: RT-PCR in vivo, liver of CD-1 mouse
[2] = target: ATP-binding cassette sub-family C member 3 (Mus musculus, UniProt B2RX12); assay: as §1
Bile salt export pump = target: T1, Bile salt export pump (Mus musculus, UniProt Q9QY30); assay: as §1
T1 sequence (Q9QY30 whole entry): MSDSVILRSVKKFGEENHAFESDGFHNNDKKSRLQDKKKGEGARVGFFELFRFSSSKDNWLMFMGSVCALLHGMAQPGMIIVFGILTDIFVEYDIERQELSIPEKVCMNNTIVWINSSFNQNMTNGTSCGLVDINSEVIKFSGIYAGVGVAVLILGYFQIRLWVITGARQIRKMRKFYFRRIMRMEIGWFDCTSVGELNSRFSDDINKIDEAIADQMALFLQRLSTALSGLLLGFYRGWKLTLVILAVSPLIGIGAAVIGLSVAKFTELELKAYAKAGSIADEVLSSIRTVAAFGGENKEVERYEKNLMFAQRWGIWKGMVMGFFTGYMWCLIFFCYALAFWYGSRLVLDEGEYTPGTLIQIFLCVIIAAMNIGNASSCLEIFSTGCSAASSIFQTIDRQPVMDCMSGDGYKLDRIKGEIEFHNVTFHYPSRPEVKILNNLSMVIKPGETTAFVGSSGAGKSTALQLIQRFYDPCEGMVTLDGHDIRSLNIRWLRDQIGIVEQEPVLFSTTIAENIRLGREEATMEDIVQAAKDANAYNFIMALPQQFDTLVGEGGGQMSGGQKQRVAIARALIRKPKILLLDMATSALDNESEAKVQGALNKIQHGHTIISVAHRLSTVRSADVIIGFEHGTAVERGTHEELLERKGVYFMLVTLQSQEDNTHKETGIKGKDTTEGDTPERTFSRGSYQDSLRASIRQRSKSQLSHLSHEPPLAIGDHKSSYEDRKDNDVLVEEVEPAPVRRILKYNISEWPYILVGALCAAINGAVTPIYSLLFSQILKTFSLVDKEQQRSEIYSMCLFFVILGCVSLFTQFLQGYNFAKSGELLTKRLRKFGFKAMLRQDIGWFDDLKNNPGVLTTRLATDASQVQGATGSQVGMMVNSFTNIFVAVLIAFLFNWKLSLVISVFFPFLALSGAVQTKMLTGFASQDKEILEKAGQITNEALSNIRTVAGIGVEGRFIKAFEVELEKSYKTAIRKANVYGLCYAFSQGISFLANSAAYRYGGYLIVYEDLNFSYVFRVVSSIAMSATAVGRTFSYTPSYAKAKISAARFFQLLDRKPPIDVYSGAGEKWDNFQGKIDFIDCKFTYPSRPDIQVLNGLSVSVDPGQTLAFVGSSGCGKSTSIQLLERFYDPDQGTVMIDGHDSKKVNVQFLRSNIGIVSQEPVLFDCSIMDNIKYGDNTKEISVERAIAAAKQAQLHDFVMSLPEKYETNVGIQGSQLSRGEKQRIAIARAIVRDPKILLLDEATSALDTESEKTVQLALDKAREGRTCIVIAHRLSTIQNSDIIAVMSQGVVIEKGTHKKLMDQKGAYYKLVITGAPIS

[3] = target: Multidrug resistance-associated protein 1 (Mus musculus, UniProt O35379); assay: as §1
Sequence of Multidrug resistance-associated protein 1 (O35379 whole entry): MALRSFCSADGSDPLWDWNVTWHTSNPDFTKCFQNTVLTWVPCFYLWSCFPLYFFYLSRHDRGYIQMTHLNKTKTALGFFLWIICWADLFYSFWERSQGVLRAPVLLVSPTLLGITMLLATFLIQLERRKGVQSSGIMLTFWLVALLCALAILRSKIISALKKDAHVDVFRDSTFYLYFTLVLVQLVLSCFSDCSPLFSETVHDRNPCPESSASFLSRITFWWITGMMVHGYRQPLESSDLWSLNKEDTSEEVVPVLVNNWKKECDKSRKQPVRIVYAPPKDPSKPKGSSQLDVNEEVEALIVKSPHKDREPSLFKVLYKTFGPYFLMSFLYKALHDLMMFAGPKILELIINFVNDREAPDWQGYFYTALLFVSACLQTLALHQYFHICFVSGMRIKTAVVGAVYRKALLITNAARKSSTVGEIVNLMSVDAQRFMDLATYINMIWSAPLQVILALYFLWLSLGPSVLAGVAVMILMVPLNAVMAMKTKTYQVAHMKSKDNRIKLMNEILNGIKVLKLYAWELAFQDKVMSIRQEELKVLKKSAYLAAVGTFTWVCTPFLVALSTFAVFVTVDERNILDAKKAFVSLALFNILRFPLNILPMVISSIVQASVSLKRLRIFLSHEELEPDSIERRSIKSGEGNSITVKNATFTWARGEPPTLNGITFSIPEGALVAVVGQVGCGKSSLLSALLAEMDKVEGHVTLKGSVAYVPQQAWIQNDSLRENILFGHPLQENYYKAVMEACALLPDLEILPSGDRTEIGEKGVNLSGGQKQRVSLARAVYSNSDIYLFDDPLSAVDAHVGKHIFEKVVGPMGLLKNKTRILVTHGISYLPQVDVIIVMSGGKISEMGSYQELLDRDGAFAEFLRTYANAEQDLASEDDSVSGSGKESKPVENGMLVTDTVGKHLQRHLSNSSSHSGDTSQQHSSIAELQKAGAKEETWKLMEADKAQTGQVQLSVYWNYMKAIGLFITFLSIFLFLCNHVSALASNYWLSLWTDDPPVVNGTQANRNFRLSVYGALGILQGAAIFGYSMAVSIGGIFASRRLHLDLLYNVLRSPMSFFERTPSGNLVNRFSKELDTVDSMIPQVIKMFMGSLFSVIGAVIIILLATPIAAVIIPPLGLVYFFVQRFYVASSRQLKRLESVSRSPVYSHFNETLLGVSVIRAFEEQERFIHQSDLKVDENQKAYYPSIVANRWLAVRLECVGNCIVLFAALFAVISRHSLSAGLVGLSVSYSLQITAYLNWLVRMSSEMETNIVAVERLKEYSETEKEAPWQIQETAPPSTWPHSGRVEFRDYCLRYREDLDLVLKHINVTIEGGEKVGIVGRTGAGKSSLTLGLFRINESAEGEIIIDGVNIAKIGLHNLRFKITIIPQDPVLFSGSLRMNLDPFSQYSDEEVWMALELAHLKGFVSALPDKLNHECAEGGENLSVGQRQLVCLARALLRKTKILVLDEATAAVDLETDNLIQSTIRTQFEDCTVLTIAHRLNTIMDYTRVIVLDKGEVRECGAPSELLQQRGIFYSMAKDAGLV

[4] = target: T2, Solute carrier organic anion transporter family member 1A1 (Mus musculus, UniProt Q9QXZ6); assay: as §1
T2 sequence (Q9QXZ6 whole entry): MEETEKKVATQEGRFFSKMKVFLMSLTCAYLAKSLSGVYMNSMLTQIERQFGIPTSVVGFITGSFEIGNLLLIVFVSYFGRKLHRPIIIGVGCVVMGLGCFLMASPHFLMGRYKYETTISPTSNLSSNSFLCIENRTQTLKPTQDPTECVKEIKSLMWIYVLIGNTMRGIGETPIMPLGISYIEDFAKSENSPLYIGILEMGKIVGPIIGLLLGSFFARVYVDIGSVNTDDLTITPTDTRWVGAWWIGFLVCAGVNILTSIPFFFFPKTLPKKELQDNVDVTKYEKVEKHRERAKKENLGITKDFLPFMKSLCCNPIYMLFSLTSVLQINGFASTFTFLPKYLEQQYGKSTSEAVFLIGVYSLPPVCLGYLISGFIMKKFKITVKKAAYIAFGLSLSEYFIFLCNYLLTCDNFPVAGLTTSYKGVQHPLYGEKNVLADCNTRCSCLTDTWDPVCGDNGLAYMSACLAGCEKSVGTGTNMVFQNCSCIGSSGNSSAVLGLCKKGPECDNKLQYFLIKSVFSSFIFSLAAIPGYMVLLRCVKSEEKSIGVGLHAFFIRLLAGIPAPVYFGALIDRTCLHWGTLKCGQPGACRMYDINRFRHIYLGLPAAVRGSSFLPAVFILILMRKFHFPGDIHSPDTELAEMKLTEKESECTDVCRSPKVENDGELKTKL

[5] = target: T3, Solute carrier organic anion transporter family member 1A4 (Mus musculus, UniProt Q9EP96); assay: as §1
T3 sequence (Q9EP96 whole entry): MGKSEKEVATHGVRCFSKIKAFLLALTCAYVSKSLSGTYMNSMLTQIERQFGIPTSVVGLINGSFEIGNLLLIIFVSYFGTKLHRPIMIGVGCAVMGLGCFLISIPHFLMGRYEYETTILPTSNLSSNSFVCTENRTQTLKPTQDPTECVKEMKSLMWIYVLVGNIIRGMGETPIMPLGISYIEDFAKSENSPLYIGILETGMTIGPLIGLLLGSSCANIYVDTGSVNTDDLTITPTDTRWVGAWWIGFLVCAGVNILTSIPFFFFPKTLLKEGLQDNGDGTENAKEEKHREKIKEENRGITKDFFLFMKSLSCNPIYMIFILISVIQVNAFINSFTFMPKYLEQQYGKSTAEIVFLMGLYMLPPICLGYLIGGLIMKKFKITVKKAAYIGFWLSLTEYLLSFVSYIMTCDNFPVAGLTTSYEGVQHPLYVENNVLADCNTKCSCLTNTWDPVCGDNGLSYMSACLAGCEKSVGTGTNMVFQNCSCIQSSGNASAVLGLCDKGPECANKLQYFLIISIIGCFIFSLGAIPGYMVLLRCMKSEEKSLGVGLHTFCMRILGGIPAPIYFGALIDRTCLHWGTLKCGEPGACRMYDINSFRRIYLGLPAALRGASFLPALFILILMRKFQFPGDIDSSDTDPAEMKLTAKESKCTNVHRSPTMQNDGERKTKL

Sequence of ATP-binding cassette sub-family C member 3 (B2RX12 whole entry): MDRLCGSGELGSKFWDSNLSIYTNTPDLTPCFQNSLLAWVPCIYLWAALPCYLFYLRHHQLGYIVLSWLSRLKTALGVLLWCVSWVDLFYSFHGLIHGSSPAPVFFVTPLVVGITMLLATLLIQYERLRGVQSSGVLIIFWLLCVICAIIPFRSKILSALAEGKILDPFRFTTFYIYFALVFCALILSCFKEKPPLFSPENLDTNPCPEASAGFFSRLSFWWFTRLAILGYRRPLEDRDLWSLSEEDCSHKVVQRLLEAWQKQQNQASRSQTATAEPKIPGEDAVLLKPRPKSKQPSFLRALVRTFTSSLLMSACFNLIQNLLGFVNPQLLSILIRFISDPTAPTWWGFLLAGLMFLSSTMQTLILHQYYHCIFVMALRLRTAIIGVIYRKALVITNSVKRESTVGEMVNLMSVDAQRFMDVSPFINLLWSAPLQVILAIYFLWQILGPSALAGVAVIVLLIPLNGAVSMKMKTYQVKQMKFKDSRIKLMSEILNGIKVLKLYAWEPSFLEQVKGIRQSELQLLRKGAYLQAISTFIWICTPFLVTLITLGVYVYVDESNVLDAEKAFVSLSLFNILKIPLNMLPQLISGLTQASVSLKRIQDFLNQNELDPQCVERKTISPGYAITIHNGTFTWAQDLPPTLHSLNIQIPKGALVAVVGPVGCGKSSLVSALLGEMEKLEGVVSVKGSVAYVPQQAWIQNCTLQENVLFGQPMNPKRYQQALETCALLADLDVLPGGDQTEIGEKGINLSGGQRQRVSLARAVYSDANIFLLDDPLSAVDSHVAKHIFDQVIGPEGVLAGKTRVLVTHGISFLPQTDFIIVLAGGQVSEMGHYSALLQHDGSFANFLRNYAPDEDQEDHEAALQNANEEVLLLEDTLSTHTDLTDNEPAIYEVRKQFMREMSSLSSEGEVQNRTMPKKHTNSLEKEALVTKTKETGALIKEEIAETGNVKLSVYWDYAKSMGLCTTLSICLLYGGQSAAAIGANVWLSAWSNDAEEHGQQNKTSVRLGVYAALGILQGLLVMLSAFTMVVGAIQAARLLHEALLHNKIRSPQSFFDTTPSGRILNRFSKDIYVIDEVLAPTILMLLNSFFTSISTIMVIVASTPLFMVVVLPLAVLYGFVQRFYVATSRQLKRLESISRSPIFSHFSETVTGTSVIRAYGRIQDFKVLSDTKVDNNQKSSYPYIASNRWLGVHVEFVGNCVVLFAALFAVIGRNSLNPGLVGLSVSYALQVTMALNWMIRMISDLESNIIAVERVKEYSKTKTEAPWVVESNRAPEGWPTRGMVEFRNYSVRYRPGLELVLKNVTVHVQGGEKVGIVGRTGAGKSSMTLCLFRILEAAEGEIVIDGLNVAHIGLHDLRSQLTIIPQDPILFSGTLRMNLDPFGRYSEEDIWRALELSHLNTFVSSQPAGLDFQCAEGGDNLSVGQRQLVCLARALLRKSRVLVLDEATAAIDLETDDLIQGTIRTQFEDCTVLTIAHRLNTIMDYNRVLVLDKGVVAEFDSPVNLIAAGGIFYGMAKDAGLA
Sequence of ATP-binding cassette sub-family C member 2 (Q8VI47 whole entry): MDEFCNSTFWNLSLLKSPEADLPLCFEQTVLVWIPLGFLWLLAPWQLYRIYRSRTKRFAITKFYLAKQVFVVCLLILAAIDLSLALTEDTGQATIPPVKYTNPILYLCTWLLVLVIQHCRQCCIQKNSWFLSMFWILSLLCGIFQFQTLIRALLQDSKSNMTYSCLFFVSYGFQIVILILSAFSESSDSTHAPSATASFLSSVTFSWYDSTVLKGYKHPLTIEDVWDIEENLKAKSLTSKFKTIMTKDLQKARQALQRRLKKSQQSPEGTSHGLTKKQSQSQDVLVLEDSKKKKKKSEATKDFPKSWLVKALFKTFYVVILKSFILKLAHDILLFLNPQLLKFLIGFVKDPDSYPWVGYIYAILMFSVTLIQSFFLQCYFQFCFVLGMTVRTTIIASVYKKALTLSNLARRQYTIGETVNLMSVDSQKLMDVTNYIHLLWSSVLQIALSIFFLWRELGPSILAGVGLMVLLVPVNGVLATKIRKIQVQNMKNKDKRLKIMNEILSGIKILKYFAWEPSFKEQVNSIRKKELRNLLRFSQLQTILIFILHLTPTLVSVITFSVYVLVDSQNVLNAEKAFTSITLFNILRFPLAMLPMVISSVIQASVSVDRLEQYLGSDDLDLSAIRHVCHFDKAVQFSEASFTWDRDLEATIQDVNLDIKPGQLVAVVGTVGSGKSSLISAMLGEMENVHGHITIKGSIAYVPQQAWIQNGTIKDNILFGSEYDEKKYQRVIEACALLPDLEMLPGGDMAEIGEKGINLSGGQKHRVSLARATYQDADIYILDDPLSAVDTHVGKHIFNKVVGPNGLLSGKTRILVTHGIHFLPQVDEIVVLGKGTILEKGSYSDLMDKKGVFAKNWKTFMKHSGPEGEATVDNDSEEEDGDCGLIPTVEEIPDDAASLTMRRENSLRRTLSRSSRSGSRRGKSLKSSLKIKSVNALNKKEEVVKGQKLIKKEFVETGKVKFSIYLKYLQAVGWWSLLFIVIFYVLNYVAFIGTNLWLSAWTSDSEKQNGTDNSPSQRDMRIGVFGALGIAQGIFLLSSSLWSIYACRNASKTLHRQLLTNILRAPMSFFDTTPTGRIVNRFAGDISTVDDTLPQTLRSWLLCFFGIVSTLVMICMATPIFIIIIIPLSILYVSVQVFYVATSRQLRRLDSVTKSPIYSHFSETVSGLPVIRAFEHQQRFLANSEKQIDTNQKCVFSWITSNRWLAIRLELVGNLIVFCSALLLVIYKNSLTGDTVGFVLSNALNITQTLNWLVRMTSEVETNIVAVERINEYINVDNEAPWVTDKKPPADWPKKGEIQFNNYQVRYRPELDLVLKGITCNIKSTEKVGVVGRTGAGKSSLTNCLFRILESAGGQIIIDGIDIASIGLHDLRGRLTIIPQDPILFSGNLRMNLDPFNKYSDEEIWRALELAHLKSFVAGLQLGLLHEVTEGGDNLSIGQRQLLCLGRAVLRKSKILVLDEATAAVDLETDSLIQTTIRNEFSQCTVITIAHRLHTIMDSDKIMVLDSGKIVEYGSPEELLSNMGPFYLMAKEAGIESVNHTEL

| Activity [1] | Activity [2] | Activity (Bile salt export pump) | Activity [3] | Activity [4] | Activity [5] | Molecule |
| --- | --- | --- | --- | --- | --- | --- |
| inducer [Decrease] | inducer [Decrease] | inducer [Decrease] | is not an inducer [-] | inducer [Decrease] | inducer [Decrease] | CCCCCCCCCCCCCC(=O)OC(CCCCCCCCCCC)CC(=O)OC1C(NC(=O)CC(CCCCCCCCCCC)OC(=O)CCCCCCCCCCC)C(OC2CC(OC(=O)CC(O)CCCCCCCCCCC)C(NC(=O)CC(O)CCCCCCCCCCC)C(O)O2)OC(CO)C1OP(=O)(O)O (stereo not given) |
| is not an inducer [-] |  | inducer [+] | is not an inducer [-] | is not an inducer [-] | is not an inducer [-] | C[C@H](CCC(=O)NCCS(=O)(=O)O)[C@H]1CC[C@H]2[C@@H]3CC[C@@H]4C[C@H](O)CC[C@]4(C)[C@H]3C[C@H](O)[C@]12C [TAURODEOXYCHOLIC ACID] |
| inducer [Decrease] | is not an inducer [-] | inducer [Decrease] |  | inducer [Decrease] | inducer [Decrease] | INTERLEUKIN 1BETA |
| inducer [Decrease] |  | inducer [Decrease] |  | inducer [Decrease] | inducer [Decrease] | INTERLEUKIN 6 |
| inducer [Decrease] | is not an inducer [-] | inducer [Decrease] |  | inducer [Decrease] | inducer [Decrease] | TURPENTINE |
